Key:
[1] = test system: rodent GSK3β homologs; conditions: cited from earlier work
[2] = test system: hPSCs; assay: hPSC differentiation to mesoderm and KDR+CD235a+ primitive hematopoietic precursors; type: cell-based, human
Text: Inhibition of Wnt signaling biases early mesoderm cells from the posterior primitive streak to generate KDR+CD235a+ primitive hematopoietic precursors (Sturgeon et al., Nat. Biotechnol. (2014); 32, 554-561). These precursors will go on to initiate primitive hematopoiesis in the yolk sac, giving rise to early EMPs. In this microglial differentiation scheme, the present example adapted Wnt inhibition to induce primitive hematopoiesis from hPSCs in a monolayer strategy. […] These cells were also KDR+ and CD235a+ (primitive hematopoietic precursors) by day 4 of differentiation by flow cytometry. […] Next, the present example developed the timeline of hemogenic endothelium and hematopoietic cell. Hemogenic endothelium developed after 1 day of replating the sorted KDR^+CD235A^+ primitive hematopoietic precursors. These cells gave rise to hematopoietic cells in suspension over 7 days in culture, gradually becoming more numerous in culture (FIG. 2). In order to validate hemogenic endothelium by VE-cadherin+staining, at 1 day post-sort, the cells were positive for VE-cadherin by immunofluorescence confirming that they were hemogenic endothelium, and the cells in suspension had characteristic small nuclei of hematopoietic cells (FIG. 3). […]

[3] = test system: WNT pathway; conditions: at the level of the pathway activator Porcupine; read-out: IC50 WNT pathway inhibition; cited from earlier work
[4] = test system: SW480 cells; conditions: cited from earlier work
[5] = test system: pMacs; assay: Serum-free maturation of pMacs into macrophages; type: cell-based, human; conditions: pMacs in IMDM/F12/N2/B27 without serum
Text: In the second strategy to generate microglia, the EMPs were matured into macrophages with 10% serum and M-CSF and IL-34. They developed the mature macrophage marker Cd11b by day 4 in culture, and the mature spindle morphology by day 11 (FIG. 10). All the cells that persisted in culture in serum and M-CSF and IL-34 after 11 days were CD45^+, indicating they were all hematopoietic. The majority also were positive for mature macrophage markers such as CX3CR1, CD14, Cd11b, and dectin by flow cytometry analysis (FIG. 11). The pMacs can also be matured into macrophages without serum, using IMDM/F12/N2/B27 in place of serum along with M-CSF and IL-34 (FIG. 12). […] Macrophage cells co-cultured with neurons yielded microglial cells with branching morphology and increased Iba1 immunofluorescence staining (FIG. 13). Iba1 was increased in microglial cells from macrophages, so the cells had transitioned into microglial identity through co-culture with neurons. Co-cultured pMac-derived microglia (EMP co-culture) and pMac-macrophage derived microglia (EMP-macrophage co-culture) share expression of key microglial genes with human fetal microglia (FIG. 14). Quantitative PCR of RNA from the two different strategies to derive microglia shared gene expression of a panel of key microglial genes with RNA from human fetal microglia (commercial source).

[6] = test system: hPSC-derived microglial cells; assay: Amyloid-beta phagocytosis by hPSC-derived microglial cells (FACS); type: cell-based, human; conditions: flow cytometry
Method: (§1) hPSC-derived microglia were used to model two neurodegenerative diseases, Alzheimer's and Amyotrophic Lateral Sclerosis (ALS). Mixed cultures of hPSC-derived microglia and Alzheimer's iPSC-derived neurons allowed to observe microglial activation in the disease culture, particularly with respect to increased complement C3 release. […] C3 was measured via ELISA. Additionally, GM-C SF diminished the C3 release in all cultures, both Alzheimer's and control (FIG. 20). […] Amyloid-β burden was decreased in microglial co-cultures with selectivity for amyloid-42 peptide (FIG. 21). […] Increased fluorescence of 42-488 inside microglial cells indicated increased uptake (FIG. 22). […] Switching fluorophores yielded similar result: amyloid-beta 42 was taken up more by microglial cells (FIG. 23). The fluorophores representing amyloid 42 and 40 were switched to make sure the effect of increased 42 brightness within cells was not due to a technical fluorophore brightness effect. Even with the switched fluorophores, in this experiment 42 was tagged to 555 and 40 to 488, there was more 42 brightness within microglial cells via immunofluorescence, corroborating the previous results that microglial cells phagocytosed amyloid-beta 42 selectively.

[7] = test system: complement C3 release from hPSC-derived microglia cultures; assay: C3 release in Alzheimer's and H9 control co-cultures (ELISA); type: cell-based, human; conditions: all cultures, both Alzheimer's and control
Method: as §1
Culture supernatants were analyzed for C3 using the Millipore Luminex Multiplex Kit on the FlexMap 3D system. […]

Cc1c[nH]c(-c2cnc(NCCNc3ccc(C#N)cn3)nc2-c2ccc(Cl)cc2Cl)n1 [CHIR99021, 6-(2-(4-(2,4-dichlorophenyl)-5-(4-methyl-1H-imidazol-2-yl)pyrimidin-2-ylamino)ethylamino)nicotinonitrile]
IC50 values against rodent GSK3β homologs [1]: nanomolar | percentage of primitive hematopoietic precursors (KDR+CD235a+) ([2]; 18 hr at 3 uM followed by Wnt inhibition via IWP2 at 3 uM, flow cytometry): highest percentage | early mesoderm marked by Brachyury (T) ([2]; eighteen hours of Wnt activation, immunofluorescence): gave rise to early mesoderm

Cc1ccc2nc(NC(=O)CSc3nc4c(c(=O)n3-c3ccccc3)SCC4)sc2c1 [IWP-2, N-(6-methyl-1,3-benzothiazol-2-yl)-2-[(4-oxo-3-phenyl-6,7-dihydrothieno[3,2-d]pyrimidin-2-yl)thio]acetamide]
IC50 [3]: 27 nM

Oc1nc(-c2ccc(C(F)(F)F)cc2)nc2c1CSCC2 [XAV939]
degradation of β-catenin [4]: promotes the degradation of β-catenin | protein levels of the axin-GSK3β complex [4]: increases

GM-CSF: granulocyte-macrophage colony-stimulating factor
cell yield / cell division and appearance [5]: allowed division of the cells as well but the resulting cells appeared more granular and activated | phagocytosis of amyloid-beta 40 [6]: increased | phagocytosis of amyloid-beta 42 [6]: increased | C3 release [7]: diminished
